The target of this test is T1, ADRB2 (beta-2 adrenergic receptor) (Homo sapiens, UniProt P07550).
T1 construct: Tango construct (TEV cleavage site and tTA, as described for the dopamine receptor plasmids); host or cells: HTLA (HEK 293-derived)
As to the kind of experiment: PRESTO-Tango β-arrestin 2 recruitment assay, ADRB2. The test is classed as cell-based. How it is done: The HTLA cell line was used for the PRESTO-Tango β-arrestin recruitment assay. The HTLA cells were provided as a gift from the laboratory of Bryan Roth (Roth Lab, USA). It is a human cell line derived from human embryonic kidney cells (HEK 293) stably expressing β-arrestin in a fusion with the tobacco etch virus protease (TEV) protease and the luciferase gene under the control of the transcription factor tetracycline transcriptional activator (tTA). The HTLA cells were cultured under standard incubation conditions (37 °C, 5% CO2, 95% humidity) in DMEM with 10% FBS. […]
The transfected HTLA cells were incubated for 24 h, and then 1 × 10^4 cells were seeded per well of a white 96-well clear bottom plate (Brand, Germany) in 40 μL of DMEM with 1% charcoal-stripped FBS (Thermo Fisher Scientific, USA). […] After 5 min., the luminescence was measured using a multi-mode microplate reader SpectraMax iD5 (Molecular Devices, San Jose, CA, USA) measuring the entire wavelength spectrum. All samples were measured in quadruplicates. The data were evaluated by Prism 7 software (GraphPad, […], CA, USA). […]
The error bar represents standard deviation from four replicates. The data were processed and evaluated by GraphPad Prism Software using one-way ANOVA: * p<0.05; ** p<0.01; *** […]

The structures appear in SMILES notation. Where a name gives a salt, the structure may show the parent alone.

T1 sequence (P07550 whole entry): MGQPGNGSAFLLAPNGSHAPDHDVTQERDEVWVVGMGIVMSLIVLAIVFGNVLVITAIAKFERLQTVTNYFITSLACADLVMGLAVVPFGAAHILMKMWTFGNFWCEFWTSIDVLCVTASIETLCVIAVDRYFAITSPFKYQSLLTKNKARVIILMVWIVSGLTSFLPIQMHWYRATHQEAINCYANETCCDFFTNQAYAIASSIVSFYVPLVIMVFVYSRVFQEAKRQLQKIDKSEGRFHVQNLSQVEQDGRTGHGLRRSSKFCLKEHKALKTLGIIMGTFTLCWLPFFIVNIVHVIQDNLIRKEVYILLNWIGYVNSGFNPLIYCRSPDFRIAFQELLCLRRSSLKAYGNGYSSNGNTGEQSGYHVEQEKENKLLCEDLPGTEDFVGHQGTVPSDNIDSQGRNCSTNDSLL

On to `CNC(C)C(=O)c1ccc(CC(C)C)cc1.Cl` (centres unmarked) [IBMcat, 4-isobutylmethcathinone hydrochloride], for which the “increase in the luminescence signal” value (ADRB2, 50 and 100 nM) turned out to be 1.5 fold.
In the case of `CN[C@@H](C)C(=O)c1ccc(CC(C)C)cc1` [S-IBMCat, (S)-4-isobutylmethcathinone hydrochloride], the “increase in the luminescence signal” value (ADRB2, 1 and 5 nM) was 1.5 fold.

Source of the values: PMC9780888, “4-Isobutylmethcathinone—A Novel Synthetic Cathinone with High In Vitro Cytotoxicity and Strong Receptor Binding Preference of Enantiomers” (Pharmaceuticals, 2022).
